Results: paper PMC9481533, “Structure-based discovery of small molecules that disaggregate Alzheimer’s disease tissue derived tau fibrils in vitro” (Nature Communications, 2022)
Values joined by “and” are separate entries in the source; they are usually repeats but may differ in a detail not shown here. Equal entries are not always repeated. Each block holds one compound with its values, some of them ahead of it.

Molecular target: crude AD brain extracts (tau seeds) in HEK293T tau biosensor cells (Homo sapiens, UniProt P10636)
Experiment: Tau biosensor cell seeding assay, screen with crude AD brain extracts
Type: cell-based
Details: 10 μM inhibitor on cells, seeds pre-incubated 16–18 h at 4 °C, individual replicates (n=3), DMSO control 10734.9/12808.5/11145.3
Text: From the in silico screen, compounds were ranked and 46 were selected for further experimental validation based on the total binding energy of the ligand/fibril complex. The experimental assessment consisted of direct measures of fibril disassembly (Fig. 2d, e and Supplementary Table 3) and assessment of the seeding capability of the products of disassembled AD tau fibrils in a biosensor cell assay. Disaggregating molecules that produce active seeds are undesirable for therapy and are excluded from further study. HEK293T cells expressing CFP- or YFP-fused tau are transduced with exogenous AD tau fibrils. Externally applied AD-tau fibrils then induce the aggregation of the endogenous fluorescent tau, resulting in the formation of FRET-positive intracellular aggregates, visible as bright puncta by fluorescence microscopy (Fig. 2f). Automated image analysis of visible puncta provides an objective quantification of seeded aggregation. […] Although biosensors may be limited in reporting structural characteristics of fibril progeny, they offer exquisitely sensitive measures of tau seeding activity—the ability for fibrils to recruit monomeric protein into fibrillar form, which is thought to be the mechanism for tau spreading in AD.
Human autopsy samples were obtained by the Mayo Clinic Brain Bank and UCLA Pathology Department according to HHS regulations from patients consenting to autopsy. Samples were provided to the researchers of this study as anonymized tissues. For purification of paired helical filaments (PHFs) and straight filaments (SFs) from AD brain tissue, extractions were performed according to the previously published protocol without any modifications. […] For biosensor seeding assays with crude AD brain extracts, fresh-frozen tissue from neuropathologically confirmed AD cases was thawed and cut into a 0.2–0.3 g sections. Tissue was manually homogenized in a 15 ml disposable tube in 1 ml of 50 mM Tris, pH 7.4 with 150 mM NaCl, and then aliquoted to PCR tubes and sonicated in a cuphorn bath for 120 min under 30% power at 4 °C in a recirculating ice water bath, according to reference.
HEK293T cell lines stably expressing tau-K18 P301S-eYFP were obtained from Marc Diamond[25] and used without further characterization or authentication. […] Inhibitors were dissolved in DMSO. […] After twenty minutes, 10 µl of fibrils were added to 90 µl of tau biosensor cells. The number of seeded aggregates was determined by imaging the entire well of a 96-well plate in triplicate using a Celigo Image Cytometer (Nexcelom) in the YFP channel. The number of aggregates in a given image was determined using an ImageJ 2.3.0[50] script, which subtracts the background fluorescence from unseeded cells, and then counts the number of aggregates as peaks with fluorescence above the background using the built-in Particle Analyzer. The number of aggregates was normalized to the confluence of each well, and dose-response plots were generated by calculating the average and standard deviations from triplicate measurements.

Sequence of crude AD brain extracts (tau seeds) in HEK293T tau biosensor cells (P10636 623-695 limits assumed): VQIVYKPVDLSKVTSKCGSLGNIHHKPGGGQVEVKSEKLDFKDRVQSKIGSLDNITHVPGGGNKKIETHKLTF

SMILES: Oc1c(Cl)cc(Cl)c2cccnc12 [5,7-dichloro-8-quinolinol AKA Chloroxine, 5,7-dichloro-8-quinolinol]
- Number of seeded aggregates in tau biosensor cells (normalized to confluence), Fig. 2e: 8929.14 and 10028.6 and 22099.9

SMILES: CC1=C(C/C=C(\C)CCC[C@H](C)CCC[C@H](C)CCCC(C)C)C(=O)c2ccccc2C1=O [FDA-R-9, Phytonadione]
- Number of seeded aggregates in tau biosensor cells (normalized to confluence), Fig. 2e: 7414.6 and 8137.54 and 11548.1

SMILES: C/C=C(/C)C(=O)O[C@H]1C(C)=C[C@]23C(=O)[C@@H](C=C(CO)[C@@H](O)[C@]12O)[C@H]1[C@@H](C[C@H]3C)C1(C)C [FDA-A-13, Ingenol mebutate]
- Number of seeded aggregates in tau biosensor cells (normalized to confluence), Fig. 2e (listed as ingenol-3-angelate): 10027.6 and 8367.28 and 13011.7

SMILES: CC1=NN(c2ccc(C)c(C)c2)C(=O)/C1=N\Nc1cccc(-c2cccc(C(=O)O)c2)c1O [FDA-A-15, Eltrombopag]
- Number of seeded aggregates in tau biosensor cells (normalized to confluence), Fig. 2e: 3758.35 and 8279.6 and 8614.09

SMILES: Cc1nc2c([nH]1)-c1ccccc1N(C(=O)c1ccc(NC(=O)c3ccccc3-c3ccccc3)cc1)CC2 [FDA-A-16, Conivaptan]
- Number of seeded aggregates in tau biosensor cells (normalized to confluence), Fig. 2e: 15272 and 13297.5 and 27692

SMILES: C[C@]12C=CC(=O)N[C@@H]1CC[C@@H]1[C@@H]2CC[C@]2(C)[C@@H](C(=O)Nc3cc(C(F)(F)F)ccc3C(F)(F)F)CC[C@@H]12 [FDA-A-9, Dutasteride]
- Number of seeded aggregates in tau biosensor cells (normalized to confluence), Fig. 2e: 6197.61 and 4567.33 and 9824.67

SMILES: COc1cc([C@@H]2c3cc4c(cc3[C@@H](O[C@@H]3O[C@@H]5CO[C@@H](c6cccs6)O[C@H]5[C@H](O)[C@H]3O)[C@H]3COC(=O)[C@H]23)OCO4)cc(OC)c1O [FDA-A-11, Teniposide]
- Number of seeded aggregates in tau biosensor cells (normalized to confluence), Fig. 2e: 28315 and 23778 and 42223.8

SMILES: CN(C)CCCN1c2ccccc2CCc2ccccc21 [FDA-R-24, Imipramine]
- Number of seeded aggregates in tau biosensor cells (normalized to confluence), Fig. 2e: 13643.9

SMILES: CO[C@H]1C[C@@H]2CC[C@@H](C)[C@@](O)(O2)C(=O)C(=O)N2CCCC[C@H]2C(=O)O[C@H]([C@H](C)C[C@@H]2CC[C@@H](OCCO)[C@H](OC)C2)CC(=O)[C@H](C)/C=C(\C)[C@@H](O)[C@@H](OC)C(=O)[C@H](C)C[C@H](C)/C=C/C=C/C=C/1C [FDA-A-7, Everolimus]
- Number of seeded aggregates in tau biosensor cells (normalized to confluence), Fig. 2e: 3758.68 and 4378.2 and 11639.6

SMILES: CC(=O)c1ccc(S(=O)(=O)NC(=O)NC2CCCCC2)cc1 [FDA-R-8, Acetohexamide]
- Number of seeded aggregates in tau biosensor cells (normalized to confluence), Fig. 2e (listed as acetohexamide aka Dymelor): 9289.39 and 6525.19 and 13238.7

SMILES: C[C@@H]1C/C=C/C=C/C=C/C=C/[C@H](O[C@@H]2O[C@H](C)[C@@H](O)[C@H](N)[C@@H]2O)C[C@@H]2O[C@](O)(C[C@@H](O)C[C@H]3O[C@@H]3/C=C/C(=O)O1)C[C@H](O)[C@H]2C(=O)O [FDA-R-19, Natamycin]
- Number of seeded aggregates in tau biosensor cells (normalized to confluence), Fig. 2e: 9211.55 and 6199.61 and 13007.3

SMILES: CN1C[C@H](C(=O)N[C@]2(C)O[C@@]3(O)[C@@H]4CCCN4C(=O)[C@H](Cc4ccccc4)N3C2=O)C[C@@H]2c3cccc4[nH]cc(c34)C[C@H]21 [FDA-A-23, Dihydroergotamine]
- Number of seeded aggregates in tau biosensor cells (normalized to confluence), Fig. 2e (listed as dihydroergotamine mesylate): 6873.71 and 6659.65 and 11949.1

SMILES: CN(C)S(=O)(=O)c1ccc2c(c1)/C(=C/c1cc3c([nH]1)CCCC3)C(=O)N2 [su6656]
- Number of seeded aggregates in tau biosensor cells (normalized to confluence), Fig. 2e: 5170.49 and 6311.14 and 10607

SMILES: CNC(=C[N+](=O)[O-])NCCSCc1csc(CN(C)C)n1 [FDA-R-7, Nizatidine]
- Number of seeded aggregates in tau biosensor cells (normalized to confluence), Fig. 2e: 6548.12 and 9220.9 and 15017.2

SMILES: O=[N+]([O-])O[C@@H]1CO[C@H]2[C@@H]1OC[C@@H]2O [FDA-R-17, Isosorbide Mononitrate]
- Number of seeded aggregates in tau biosensor cells (normalized to confluence), Fig. 2e (listed as isosorbide mononitrate mw): 7858.85 and 13647.5 and 18697.1

SMILES: CNS(=O)(=O)CCc1ccc2[nH]cc(C3CCN(C)CC3)c2c1 [FDA-R-4, Naratriptan]
- Number of seeded aggregates in tau biosensor cells (normalized to confluence), Fig. 2e: 8578.9 and 6012.3 and 15427

The remaining lines, values ahead:

- Number of seeded aggregates in tau biosensor cells (normalized to confluence), Fig. 2e (listed as 6933498): 6268.06 and 9513.63 and 13394.2
SMILES: Cc1ccc(S(=O)(=O)N(C(F)F)C(C)(C)C)cc1 [CNS-9, N-(tert-butyl)-N-(difluoromethyl)-4-methylbenzenesulfonamide]

- Number of seeded aggregates in tau biosensor cells (normalized to confluence), Fig. 2e (listed as 6343767): 6727.54 and 6497.71 and 11400
SMILES: CC1=C(C(=O)Nc2cccc(C)n2)C(c2ccccc2C)C2=C(CCCC2=O)N1 (stereo not shown) [CNS-6, 2-methyl-4-(2-methylphenyl)-N-(6-methyl-2-pyridinyl)-5-oxo-1,4,5,6,7,8-hexahydro-3-quinolinecarboxamide]

- Number of seeded aggregates in tau biosensor cells (normalized to confluence), Fig. 2e (listed as 7520752): 9057.73 and 5534.89 and 16287.3
SMILES: CC(=O)Nc1cc(-c2nn(C)c(=O)c3ccccc23)ccc1N1CCCCC1 [CNS-19, N-[5-(3-methyl-4-oxo-3,4-dihydro-1-phthalazinyl)-2-(1-piperidinyl)phenyl]acetamide]

- Number of seeded aggregates in tau biosensor cells (normalized to confluence), Fig. 2e (listed as 7663820): 40070.2 and 48758.2 and 61897.7
SMILES: N#Cc1c2c(n3cc4ccccc4cc13)C(=O)c1ccccc1C2=O [CNS-20, 5,14-dioxo-5,14-dihydrobenzo[5,6]indolo[1,2-b]isoquinoline-13-carbonitrile]

- Number of seeded aggregates in tau biosensor cells (normalized to confluence), Fig. 2e (listed as 7729218): 7077.98 and 8551.58 and 10715.2
SMILES: Cc1ccc(N2C(=O)CC(n3cnc4ccccc43)C2=O)c(C)c1 (stereo not shown) [CNS-22, 3-(1H-benzimidazol-1-yl)-1-(2,4-dimethylphenyl)-2,5-pyrrolidinedione]

- Number of seeded aggregates in tau biosensor cells (normalized to confluence), Fig. 2e (listed as 6317572): 8103.61 and 7551.45 and 17671.3
SMILES: CC1=C(C(=O)Nc2ccccn2)C(c2ccc(F)cc2)C2=C(CCCC2=O)N1 (stereo not shown) [CNS-4, 4-(4-fluorophenyl)-2-methyl-5-oxo-N-2-pyridinyl-1,4,5,6,7,8-hexahydro-3-quinolinecarboxamide]

- Number of seeded aggregates in tau biosensor cells (normalized to confluence), Fig. 2e (listed as 9002758): 4798.71 and 2194.24 and 9734.93
SMILES: Cc1cccc(-c2noc(-c3ccccc3C(=O)NCc3cccnc3)n2)c1 [CNS-24, 2-[3-(3-methylphenyl)-1,2,4-oxadiazol-5-yl]-N-(3-pyridinylmethyl)benzamide]

- Number of seeded aggregates in tau biosensor cells (normalized to confluence), Fig. 2e (listed as 6991358): 4869.84 and 6105.12 and 9256.09
SMILES: O=C(c1cc2cc(Br)ccc2oc1=O)N1CCc2ccccc2C1 [CNS-10, 6-bromo-3-(3,4-dihydro-2(1H)-isoquinolinylcarbonyl)-2H-chromen-2-one]

- Number of seeded aggregates in tau biosensor cells (normalized to confluence), Fig. 2e (listed as 7850915): 11080.3 and 15413.1 and 17191
SMILES: Cn1c(=O)n(C)c2cc3c(cc21)nc1c2cccc4cccc(c(=O)n31)c42 [CNS-1, 10,12-dimethyl-10,12-dihydro-7H,11H-benzo[de]imidazo[4',5':5,6]benzimidazo[2,1-a]isoquinoline-7,11-dione]
